In US9771352B2, “Hydroxyalkyl-substituted phenyltriazole derivatives and uses thereof” (BAYER PHARMA AKTIENGESELLSCHAFT, priority 2014, dated 2017) one finds IC50 data, which are given here for 19 molecules.

For assay [1], the target named is T1, human V2 receptor (Homo sapiens, UniProt P30518).
T1 construct: expressed in transfected cells; host or cells: CHO K1 (ATCC) expressing firefly luciferase under a CRE-responsive promoter
The assay can be described thus: Cellular in vitro assay for determining vasopressin receptor activity, V2 receptor cell line (CRE-luciferase). The assay is classed as cell-based. Conditions: CHO cell line transfected with human V2 receptor; [Arg8]-vasopressin at EC50; compounds of the invention (Table 1A); read-out: IC50 hV2. As for the experimental part:
(§1) The identification of agonists and antagonists of the V1a and V2 vasopressin receptors from humans, rats and dogs as well as the quantification of the activity of the compounds of the invention is carried out using recombinant cell lines. These cell lines originally derive from a hamster's ovary epithelial cell (Chinese Hamster Ovary, CHO K1, ATCC: American Type Culture Collection, Manassas, Va. 20108, USA). The test cell lines constitutively express the human, rat or dog V1a or V2 receptors. In case of the […] V1a receptors, cells are also stably transfected with a modified form of the calcium-sensitive photoproteins aequorin (human and rat V1a) or obelin (dog V1a), which, after reconstitution with the cofactor coelenterazine, emit light when there are increases in free calcium concentrations [Rizzuto R, Simpson A W, Brini M, Pozzan T, Nature 358, 325-327 (1992); Illarionov B A, Bondar V S, Illarionova V A, Vysotski E S, Gene 153 (2), 273-274 (1995)]. The resulting vasopressin receptor cells react to stimulation of the recombinantly expressed V1a receptors by intracellular release of calcium ions, which can be quantified by the resulting photoprotein luminescence. The Gs-coupled V2 receptors are stably transfected into cell lines expressing the gene for firefly luciferase under control of a CRE-responsible promoter. Activation of V2 receptors induces the activation of the CRE-responsive promoter via cAMP increase, thereby inducing the expression of firefly luciferase. The light emitted by photoproteins of V1a cell lines as well as the light emitted by firefly luciferase of V2 cell lines corresponds to the activation or inhibition of the respective vasopressin receptor. The bioluminescence of the cell lines is detected using a suitable luminometer [Milligan G, Marshall F, Rees S, Trends in Pharmacological Sciences 17, 235-237 (1996)].
On the day before the assay, the cells are plated out in culture medium (DMEM/F12, 2% FCS, 2 mM glutamine, 10 mM HEPES) in 384-well microtiter plates and kept in a cell incubator (96% humidity, 5% v/v CO2, 37° C.). […] Upon addition of the cell lysis reagent Triton and the substrate luciferin, luminescence of firefly luciferase is measured in a luminometer.
(§2) Table 1A below lists individual IC50 values for the compounds of the invention (including diastereomeric mixtures as well as separated, enantiopure diastereomers) that were obtained from cell lines transfected with the human V1a or V2 receptor: […]

In assay [2] the target is T2, human V1a receptor (Homo sapiens, UniProt P37288).
T2 construct: expressed in transfected cells; host or cells: CHO K1 (ATCC), also stably transfected with modified aequorin
The assay can be described thus: Cellular in vitro assay for determining vasopressin receptor activity, V1a receptor cell line (photoprotein luminescence). Type of assay: cell-based. Conditions: CHO cell line transfected with human V1a receptor; [Arg8]-vasopressin at EC50; compounds of the invention (Table 1A); read-out: IC50 hV1a. As for the experimental part: as §1
On the day before the assay, the cells are plated out in culture medium (DMEM/F12, 2% FCS, 2 mM glutamine, 10 mM HEPES, 5 μg/ml coelenterazine) in 384-well microtiter plates and kept in a cell incubator (96% humidity, 5% v/v CO2, 37° C.). On the day of the assay, test compounds in various concentrations are placed for 10 minutes in the wells of the microtiter plate before the agonist [Arg^8]-vasopressin at EC50 concentration is added. The resulting light signal is measured immediately in the luminometer.
as §2

T1 sequence (P30518 whole entry): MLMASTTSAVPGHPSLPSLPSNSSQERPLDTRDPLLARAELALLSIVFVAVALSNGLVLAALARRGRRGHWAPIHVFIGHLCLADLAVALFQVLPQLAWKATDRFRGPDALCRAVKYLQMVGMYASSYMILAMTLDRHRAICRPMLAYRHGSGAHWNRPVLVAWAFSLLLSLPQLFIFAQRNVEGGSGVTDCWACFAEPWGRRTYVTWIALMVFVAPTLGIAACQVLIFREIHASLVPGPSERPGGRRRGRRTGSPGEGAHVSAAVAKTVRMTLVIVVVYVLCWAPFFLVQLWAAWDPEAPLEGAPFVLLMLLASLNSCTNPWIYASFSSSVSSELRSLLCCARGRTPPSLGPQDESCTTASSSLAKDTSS
T2 sequence (P37288 whole entry): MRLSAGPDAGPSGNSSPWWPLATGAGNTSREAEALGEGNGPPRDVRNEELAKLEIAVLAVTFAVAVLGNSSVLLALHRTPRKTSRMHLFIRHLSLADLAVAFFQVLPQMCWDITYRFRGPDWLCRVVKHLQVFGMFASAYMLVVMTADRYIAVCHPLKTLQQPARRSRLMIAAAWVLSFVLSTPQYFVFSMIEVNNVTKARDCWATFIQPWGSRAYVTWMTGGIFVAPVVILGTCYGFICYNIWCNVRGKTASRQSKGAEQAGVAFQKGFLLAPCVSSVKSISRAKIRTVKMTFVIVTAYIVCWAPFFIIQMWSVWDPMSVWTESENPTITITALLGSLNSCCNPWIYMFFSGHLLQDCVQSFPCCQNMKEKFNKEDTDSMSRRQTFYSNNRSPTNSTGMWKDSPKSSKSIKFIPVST

A word on the IC50: it is the midpoint of a concentration-inhibition curve. For `O=c1n(Cc2nc(CO)n(-c3cc(F)ccc3Cl)n2)nc(-c2ccc(Cl)cc2)n1C[C@H](O)C(F)(F)F` [Example 9, 2-{[1-(2-Chloro-5-fluorophenyl)-5-(hydroxymethyl)-1H-1,2,4-triazol-3-yl]methyl}-5-(4-chlorophenyl)-4-[(2S)-3,3,3-trifluoro-2-hydroxypropyl]-2,4-dihydro-3H-1,2,4-triazol-3-one], the IC50 in assay [1] amounted to 2.3 nM; in assay [2], 0.4 nM.

For the molecule `COc1ccc(F)cc1-n1nc(Cn2nc(-c3ccc(Cl)cc3)n(C[C@H](O)C(F)(F)F)c2=O)nc1C(C)O` (mixture of isomers) [Example 37, 5-(4-Chlorophenyl)-2-({1-(5-fluoro-2-methoxyphenyl)-5-[(1RS)-1-hydroxyethyl]-1H-1,2,4-triazol-3-yl}methyl)-4-[(2S)-3,3,3-trifluoro-2-hydroxypropyl]-2,4-dihydro-3H-1,2,4-triazol-3-one], the IC50 in assay [1] stood at 0.7 nM; in assay [2] it was 0.5 nM.

As for `CC(O)c1nc(Cn2nc(-c3ccc(Cl)cc3)n(C[C@H](O)C(F)(F)F)c2=O)nn1-c1cccc(F)c1Cl` (single isomer, unassigned) [Example 67], the 50% inhibitory concentration (IC50) amounted to 2.7 nM in assay [1] and 2.1 nM in assay [2].

Turning to `CC(O)c1nc(Cn2nc(-c3ccc(Cl)cc3)n(C[C@H](O)C(F)(F)F)c2=O)nn1-c1cccc(Cl)c1` (mixture of isomers) [Example 78, 5-(4-Chlorophenyl)-2-({1-(3-chlorophenyl)-5-[(1RS)-1-hydroxyethyl]-1H-1,2,4-triazol-3-yl}-methyl)-4-[(2S)-3,3,3-trifluoro-2-hydroxypropyl]-2,4-dihydro-3H-1,2,4-triazol-3-one], the IC50 in assay [1] was determined as 3.1 nM; in assay [2] it was 10.4 nM.

Regarding `CC(O)c1nc(Cn2nc(-c3ccc(Cl)cc3)n(C[C@H](O)C(F)(F)F)c2=O)nn1-c1cc(Cl)ccc1Cl` (mixture of isomers) [Example 49, 5-(4-Chlorophenyl)-2-({1-(2,5-dichlorophenyl)-5-[(1RS)-1-hydroxyethyl]-1H-1,2,4-triazol-3-yl}-methyl)-4-[(2S)-3,3,3-trifluoro-2-hydroxypropyl]-2,4-dihydro-3H-1,2,4-triazol-3-one], the values for the half-maximal inhibitory concentration (IC50) in assay [1] and in assay [2] were 12.6 nM and 1.8 nM, respectively.

Regarding `CC(O)c1nc(Cn2nc(-c3ccc(Cl)cc3)n(C[C@H](O)C(F)(F)F)c2=O)nn1-c1cc(F)cc(F)c1` (single isomer, unassigned) [Example 27], the IC50 in assay [1] came out at 7.7 nM; in assay [2], 43.7 nM.

For `CC(O)c1nc(Cn2nc(-c3ccc(Cl)cc3)n(C[C@H](O)C(F)(F)F)c2=O)nn1-c1ccccc1F` (single isomer, unassigned) [Example 41], the half-inhibitory concentration (IC50) in assay [1] amounted to 7.9 nM; in assay [2], 1.8 nM.

On to `CC(O)c1nc(Cn2nc(-c3ccc(Cl)cc3)n(C[C@H](O)C(F)(F)F)c2=O)nn1-c1ccccc1` (single isomer, unassigned) [Example 18], for which the figures for the half-inhibitory concentration (IC50) in assay [1] and in assay [2] were 8.6 nM and 14.1 nM, respectively.

As for `CC(O)c1nc(Cn2nc(-c3ccc(Cl)cc3)n(C[C@H](O)C(F)(F)F)c2=O)nn1-c1cccc(C(F)(F)F)c1` (mixture of isomers) [Example 22, 5-(4-Chlorophenyl)-2-({5-[(1RS)-1-hydroxyethyl]-1-[3-(trifluoromethyl)phenyl]-1H-1,2,4-triazol-3-yl}methyl)-4-[(2S)-3,3,3-trifluoro-2-hydroxypropyl]-2,4-dihydro-3H-1,2,4-triazol-3-one], the half-maximal inhibitory concentration (IC50) was 2.3 nM in assay [1] and 24.4 nM in assay [2].

Regarding `CCc1ccccc1-n1nc(Cn2nc(-c3ccc(Cl)cc3)n(C[C@H](O)C(F)(F)F)c2=O)nc1C(C)O` (single isomer, unassigned) [Example 32], the IC50 was found to be 1 nM in assay [1] and 0.9 nM in assay [2].

Turning to `CC(O)c1nc(Cn2nc(-c3ccc(Cl)cc3)n(C[C@H](O)C(F)(F)F)c2=O)nn1-c1cc(Cl)cc(Cl)c1` (single isomer, unassigned) [Example 48], the IC50 was found to be 2.4 nM in assay [1] and 3.2 nM in assay [2].

`CC(O)c1nc(Cn2nc(-c3ccc(Cl)cc3)n(C[C@H](O)C(F)(F)F)c2=O)nn1-c1cccc(Cl)c1Cl` (mixture of isomers) [Example 61, 5-(4-Chlorophenyl)-2-({1-(2,3-dichlorophenyl)-5-[(1RS)-1-hydroxyethyl]-1H-1,2,4-triazol-3-yl}-methyl)-4-[(2S)-3,3,3-trifluoro-2-hydroxypropyl]-2,4-dihydro-3H-1,2,4-triazol-3-one]: the IC50 was 0.2 nM in assay [1] and 3.2 nM in assay [2].

`CC(O)c1nc(Cn2nc(-c3ccc(Cl)cc3)n(C[C@H](O)C(F)(F)F)c2=O)nn1-c1cccc(Cl)c1F` (mixture of isomers) [Example 52, 2-({1-(3-Chloro-2-fluorophenyl)-5-[(1RS)-1-hydroxyethyl]-1H-1,2,4-triazol-3-yl}methyl)-5-(4-chlorophenyl)-4-[(2S)-3,3,3-trifluoro-2-hydroxypropyl]-2,4-dihydro-3H-1,2,4-triazol-3-one]: the concentration for half-maximal inhibition (IC50) in assay [1] is 0.4 nM; in assay [2] it was 3.9 nM.

On to `CC(O)c1nc(Cn2nc(-c3ccc(Cl)cc3)n(C[C@H](O)C(F)(F)F)c2=O)nn1-c1cccc(C(F)F)c1` (mixture of isomers) [Example 19, 5-(4-Chlorophenyl)-2-({1-[3-(difluoromethyl)phenyl]-5-[(1RS)-1-hydroxyethyl]-1H-1,2,4-triazol-3-yl}methyl)-4-[(2S)-3,3,3-trifluoro-2-hydroxypropyl]-2,4-dihydro-3H-1,2,4-triazol-3-one], for which the figures for the IC50 in assay [1] and in assay [2] were 1.4 nM and 12.4 nM, respectively.

In the case of `CC(O)c1nc(Cn2nc(-c3ccc(Cl)cc3)n(C[C@H](O)C(F)(F)F)c2=O)nn1-c1cc(Cl)ccc1Cl` (single isomer, unassigned) [Example 50], the IC50 is 10 nM in assay [1] and 1.3 nM in assay [2].

With `CC(O)c1nc(Cn2nc(-c3ccc(Cl)cc3)n(C[C@H](O)C(F)(F)F)c2=O)nn1-c1ccc(F)c(Cl)c1` (single isomer, unassigned) [Example 45], the IC50 is 3.3 nM in assay [1] and 92.1 nM in assay [2].

Regarding `CC(O)c1nc(Cn2nc(-c3ccc(Cl)cc3)n(C[C@H](O)C(F)(F)F)c2=O)nn1-c1ccccc1F` (single isomer, unassigned) [Example 42], the concentration for half-maximal inhibition (IC50) turned out to be 12.7 nM in assay [1] and 5.1 nM in assay [2].

Regarding `Cc1cccc(-n2nc(Cn3nc(-c4ccc(Cl)cc4)n(C[C@H](O)C(F)(F)F)c3=O)nc2C(C)O)c1` (mixture of isomers) [Example 28, 5-(4-Chlorophenyl)-2-({5-[(1RS)-1-hydroxyethyl]-1-(3-methylphenyl)-1H-1,2,4-triazol-3-yl}-methyl)-4-[(2S)-3,3,3-trifluoro-2-hydroxypropyl]-2,4-dihydro-3H-1,2,4-triazol-3-one], the IC50 in assay [1] came out at 0.2 nM; in assay [2], 1.3 nM.

As for `CC(O)c1nc(Cn2nc(-c3ccc(Cl)cc3)n(C[C@H](O)C(F)(F)F)c2=O)nn1-c1cccc(Cl)c1Cl` (single isomer, unassigned) [Example 62], the results for the 50% inhibitory concentration (IC50) in assay [1] and in assay [2] were 0.9 nM and 7.8 nM, respectively.
